Experimental findings from patent US20220347167A1, “A NEW TREATMENT FOR MEIBOMIAN GLAND DYSFUNCTION” (The Schepens Eye Research Institute, Inc., priority 2019, published 2022) are described below.

“Also recorded” adds a separate entry of the source.

The subject of experiment [1] is apolipoprotein E-deficient (ApoE −/−) mice. Description: Serum cholesterol in ApoE −/− mice (cholesterol fluorometric assay kit). As to conditions: Roxa 10 mg/kg subcutaneous, three times per week for 12 weeks, vs vehicle, p<0.05. The format is in vivo, mouse. The method, then: The whole blood samples of mice were collected by cardiac puncture after sacrificing. The blood samples were allowed to clot by leaving it undisturbed at room temperature for 15 minutes. The clot was removed by centrifuging at 1,000-2,000×g for 10 minutes in a refrigerated centrifuge. The resulting supernatant was designated serum. Then the cholesterol level in the serum was evaluated by using a commercially available cholesterol fluorometric assay kit (#10007640, Cayman Chemical, Mich.). The weight of each mice was measured before and after the experiment. The percentage of weight gain was compared between the Roxa-treated mice and the vehicle-treated mice.
At the beginning of the study, the 16 ApoE−/− mice and 4 wild-type (WT) C57BL/6J mice, 12 weeks of age, were measured for their weight, tear volume, corneal fluorescein staining and tear breakup time (TBUT). The ApoE −/− mice were randomly divide into 2 groups (n=8 mice/group) and treated with vehicle control (2% DMSO in sterile saline, subcutaneous injection) or Roxa (10 mg/kg, subcutaneous injection). The injections were administrated three times per week (on Monday, Wednesday, and Friday mornings) for 12 weeks. […] At the end of the study, the weight, tear volume, corneal fluorescein staining and tear breakup time (TBUT) were measured again. […]

In experiment [2] the test system is IHMGECs. The experiment in a line: Oil red O (ORO) staining of neutral lipid droplets in IHMGECs. The format is cell-based, human. The method, then:
Authenticated IHMGECs were grown and passaged in keratinocyte serum-free medium (KSFM) with 5 ng/mL epidermal growth factor (EGF) and 50 μg/mL bovine pituitary extract (BPE) (Thermo Fisher Scientific, Waltham, Mass.) under 21% O2 (normoxia) [Liu et al. (2010) Investigative ophthalmology & visual science 51:3993-4005; McDermott et al. (2018) Current eye research 43:1097-1101; Liu et al. (2013) Investigative ophthalmology & visual science 54:2541-2550]. Upon reaching 60% to 70% confluence, culture media were replaced by a 1:1 mixture of Dulbecco's modified Eagle's medium and Ham's F12 (DMEM/F12, Corning Life Sciences, Tewksbury, Mass.), supplemented with 10% fetal bovine serum (FBS, Atlanta Biologicals, Flowery Branch, Ga.) [Sullivan et al. (2014) Investigative ophthalmology & visual science 55:3866-3877; Liu et al. (2014) JAMA ophthalmology 132:226-228]. Cells were cultured for 4-10 days under 21% O2 (normoxic) or 1% O2 (hypoxic) conditions. […]
After four days of incubation, cells seeded on chamber slides (Corning, Rochester, N.Y.) were stained with 0.3% Oil red 0 (ORO, Fisher Biotec, Wembley, Wash., Australia) according to the published protocol in Liu et al. (2010) Investigative ophthalmology & visual science 51:3993-4005) and Liu et al. (2014) Toxicology 320:1-5. […] The size of the stained area was quantified using ImageJ [Deutsch et al. (2014) Anal Biochem 445:87-89]. […]

Experiment [3] deals with IHMGECs. Description: Cell number of IHMGECs (hemocytometer). The format is cell-based, human. On the procedure: After being treated with 21% O2, 1% O2, 10 μM Roxa or a combination for 10 days, cell numbers were counted with a hemocytometer and the cell lysates and cell culture supernatants were collected, as previously described in Liu et al. (2019) The ocular surface 17(2):310-317. DNase II activity in fresh samples was analyzed by SREDA in agarose gels according to published protocols in Liu et al. (2019) The ocular surface 17(2):310-317 and Oka et al. (2012) Nature 485:251-255. Cell lysates and culture media were used to measure the DNase II activity inside and outside of the cells, respectively [Liu et al. (2019) The ocular surface 17(2):310-317]. After incubation for 3-24 hours at 37° C., the area of the dark circle in the gel was measured under an UV trans-illuminator at 312 nm. For comparison between conditions, values were normalized to cell number.
Low O2 increases DNase II activity and promotes cell terminal differentiation of IHMGECs (Liu et al. Ocul Surf 2019; 17:310-317). To determine whether Roxa treatment can reproduce this hypoxic effect, IHMGECs were treated with Roxa in both normoxic and 1% O2 conditions for 10 days, prior to counting cell numbers and analyzing DNase II activity in cell lysates and supernatants.

The test system of another experiment is HMGECs. The experiment in a line: Effect of low oxygen mimetic drugs on HMGEC function / lipid induction. The format is cell-based, human.

In the case of `Cc1nc(C(=O)NCC(=O)O)c(O)c2ccc(Oc3ccccc3)cc12` [Roxa, roxadustat], the serum cholesterol level entry in experiment [1] is “significantly reduced”. For the same compound, the “accumulation of neutral lipid droplets in IHMGECs (area of ORO staining)” value in the experiment with IHMGECs [2] (Roxa alone, 21% O2, 4 days) is reported as “significantly increased; also recorded: duplicated the effect of a hypoxic environment”. Moreover, the “accumulation of neutral lipid droplets in IHMGECs (area of ORO staining), combination of Roxa and 1% O2” value with IHMGECs [2] (Roxa in 1% O2, 4 days) is “significantly increased; also recorded: further increased”. For the same compound, the “cell number of IHMGECs” value in the experiment with IHMGECs [3] (Roxa alone, 21% O2, 10 days) was “significant decreases”. For the same compound, in the experiment with IHMGECs [3] (Roxa in 1% O2, 10 days), the “cell number of IHMGECs, combination of Roxa and 1% O2” value was “significant decreases”. Moreover, the “lipid-inducing effect in HMGECs compared with other low oxygen mimetic drugs” value in the experiment with HMGECs is listed as “stronger lipid-inducing effect”.
